Measured values as given in article PMC6332320, “Factors Influencing Oral Bioavailability of Thai Mango Seed Kernel Extract and Its Key Phenolic Principles” (Molecules, 2015).

What was measured:
[1] = system: Caco-2 cell lysates; assay: Biological stability in Caco-2 cell lysates; type: in vitro ADME, human; conditions: individual compound 100 µM, HBSS pH 6, up to 24 h
Protocol: Caco-2 cells were cultured in T75 flasks at a seeding density of 2 × 10^6 cells/flask for 12–15 days. The cell lysate was freshly prepared by washing the cells twice with ice-cold HBSS at pH 6 (12 mL). The cells were then collected by scraping and resuspending in ice-cold HBSS at pH 6 (7.5 mL/flask). The cell suspension was vortexed and sonicated in an ice water bath for 30 min to obtain the lysate, which was kept on ice until use, and its cellular protein concentration was determined using a BCA™ protein assay kit (Thermo Fisher Scientific, Rockford, IL, USA) with bovine serum albumin as a reference standard.
Many phenolic compounds were subject to sulfation and glucuronidation by Caco-2 cells at concentrations higher than 20 μM [16, 21, 43] and the metabolites of GA, MG and PGG could not be observed in Caco-2 transport experiment. Therefore, the concentration of the standard pure compounds used in this study was higher than that used in the chemical stability experiment. After preparing the cell lysate, the test compounds were prepared by dissolution in HBSS at pH 6 and then added to the lysates for a final concentration of 1.08 mg/mL protein to obtain final individual concentrations of 100 μM for GA, MG and PGG and 0.75 mg/mL for MSKE, which is equivalent to concentrations of 55.12 ± 4.57 µM GA, 7.56 ± 0.85 µM MG and 110.02 ± 17.52 µM PGG. The mixtures were then incubated in a water bath at 37 °C for 24 h, and samples (50 µL for standard compounds, and 200 µL for MSKE) were collected at 0, 4, 6 and 24 h. Each sample was then added to an ice-cold 50% methanol (150 µL for GA, MG and PGG, and 600 µL for MSKE) to stop the reaction, vortexed and centrifuged at 15,500 rpm for 15 min, and the supernatant was injected into the UPLC for analysis.
The chemical and biological stabilities of the phenolic compounds were expressed as the concentration of the analyte at different time points relative to the concentration of the same analyte at time zero multiplied by 100 (% recovery).

[2] = mouse, in vivo, po, 80 mg/kg; cited from earlier work
[3] = rat, in vivo, ip, 20 mg/kg; cited from earlier work
[4] = system: Caco-2 cells; conditions: cited from earlier work

O=C(OC[C@H]1O[C@@H](OC(=O)c2cc(O)c(O)c(O)c2)[C@H](OC(=O)c2cc(O)c(O)c(O)c2)[C@@H](OC(=O)c2cc(O)c(O)c(O)c2)[C@@H]1OC(=O)c1cc(O)c(O)c(O)c1)c1cc(O)c(O)c(O)c1 [PGG, Pentagalloylglucopyranose]
stability in HBSS at pH 6 (blank control) [1]: stable in HBSS at pH 6 for 6 h and slightly degraded within 24 h | plasma PGG levels [2]: below the limit of detection | Cmax [3]: 6 µM | Papp AB [4]: 0.08 ± 0.03 × 10^−6 cm/s
